Data on 46 molecules can be found in patent US11999747B2, “Furoquinolinediones as inhibitors of TDP2” (THE UNITED STATES OF AMERICA, AS REPRESENTED BY THE …, priority 2015, dated 2024).

Molecules are shown by their SMILES. Where only a bound is given, the exact number is not on record here.

One experiment concerns the target T1, recombinant human TDP2 (Homo sapiens, UniProt O95551).
T1 sequence (O95551 1-362): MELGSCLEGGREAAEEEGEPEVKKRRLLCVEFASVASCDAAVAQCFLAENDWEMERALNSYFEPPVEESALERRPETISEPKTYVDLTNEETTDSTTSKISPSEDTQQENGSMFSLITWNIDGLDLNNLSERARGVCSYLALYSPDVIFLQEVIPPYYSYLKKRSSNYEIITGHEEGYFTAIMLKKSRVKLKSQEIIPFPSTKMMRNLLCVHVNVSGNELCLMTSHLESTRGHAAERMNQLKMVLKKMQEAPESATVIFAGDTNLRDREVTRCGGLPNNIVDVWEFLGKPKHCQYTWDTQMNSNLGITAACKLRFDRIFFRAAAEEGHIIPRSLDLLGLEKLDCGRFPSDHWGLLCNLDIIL
As to the kind of experiment: Recombinant Tdp2 assay (gel-based, 18-mer ssDNA substrate). It is filed as biochemical. The following applies: recombinant human TDP2, 25 pM, 15 min, room temperature; read-out: REC TDP2. On the procedure:
TDP2 reactions were carried out as described previously (Example 52) with the following modifications. The 18-mer single-stranded oligonucleotide DNA substrate (α^32P-cordycepin-3′-labeled) was incubated at 1 nM with 25 pM recombinant human TDP2 in the absence or presence of inhibitor for 15 min at room temperature in a buffer containing 50 mM Tris-HCl, pH 7.5, 80 mM KCl, 5 mM MgCl2, 0.1 mM EDTA, 1 mM DTT, 40 μg/mL BSA, and 0.01% Tween 20. Reactions were terminated and treated similarly to WCE and recombinant TDP1 reactions (see Examples 52 and 53).
(§1) All compounds were prepared by the methods shown in Examples 1 to 50. Routine changes in starting materials and reaction conditions, readily apparent to those of skill in the art, were used to make the particular compounds disclosed in Table 1. […] A standard Tdp2 inhibition assay, such as the assay of Example 53, is used to determine the IC50's for the compounds. LC methods are given in the General Methods section.

For a further experiment, the target named is T2, human TDP2 (hTDP2) (Homo sapiens, UniProt O95551).
T2 construct: expressed in transfected cells; host or cells: DT40 (chicken) TDP1-/- knockout cells complemented with human TDP2; whole cell extract
T2 sequence (O95551 1-362): T1 sequence (O95551 1-362)
As to the kind of experiment: Whole cell extract Tdp2 assay (DT40 TDP1-/- cells complemented with human TDP2). The conditions noted are these: whole cell extract 4 μg/mL of DT40 cells expressing hTDP2, 15 min, room temperature; read-out: WCE hTDP2. The experiment is classed as biochemical. The protocol: DT40 knockout cells (1×10^7) for Tdp1 (TDP1−/−) complemented with human TDP2 (hTDP2) were collected, washed, and centrifuged. Cell pellets were then lysed and stored similarly to hTDP1 extracts (see above). The 18-mer single-stranded oligonucleotide was incubated at 1 nM with 4 μg/mL of whole cell extracts in the absence or presence of inhibitor for 15 min at room temperature in the WCE buffer containing 50 mM Tris HCl, pH 7.5, 80 mM KCl, 5 mM MgCl2, 2 mM EDTA, 1 mM DTT, 40 μg/mL BSA, and 0.01% Tween-20. Reactions were terminated by the addition of 1 volume of gel loading buffer [99.5% (v/v) formamide, 5 mM EDTA, 0.01% (w/v) xylene cyanol, and 0.01% (w/v) bromophenol blue]. Samples were then treated and run similarly to the hTDP1 whole cell extract (Example 51).
as §1

Turning to `Cc1oc2c(c1C(=O)Oc1ccc(Br)cc1)C(=O)c1ncccc1C2=O` [Compound 31], the IC50 at recombinant human TDP2 and on human TDP2 (hTDP2) was 12 to 37 µM in each case.

On to `CCOC(=O)c1c(C)oc2c1C(=O)c1cccnc1C2=O` [Compound 1, Ethyl 2-methyl-4,9-dioxo-4,9-dihydrofuro[3,2-g]quinoline-3-carboxylate], for which the IC50 at recombinant human TDP2 and on human TDP2 (hTDP2) was 37 to 111 µM each time.

Regarding `Cc1oc2c(c1C(=O)Oc1ccccc1)C(=O)c1ncccc1C2=O` [Compound 14], the IC50 at recombinant human TDP2 lay within 12 to 37 µM; on human TDP2 (hTDP2), 1 to 12 µM.

Regarding `C#Cc1cccc(OC(=O)c2c(C)oc3c2C(=O)c2ncccc2C3=O)c1` [Compound 32], the IC50 on recombinant human TDP2 lay in the range of 37 to 111 µM; at human TDP2 (hTDP2), 12 to 37 µM.

For the molecule `Cc1oc2c(c1C(=O)Oc1cccc(-c3cn(CCC(=O)O)nn3)c1)C(=O)c1ncccc1C2=O` [Compound 33], the IC50 at recombinant human TDP2 and on human TDP2 (hTDP2) was 12 to 37 µM in each case.

Regarding `Cc1oc2c(c1C(=O)Nc1ccccc1)C(=O)c1ncccc1C2=O` [Compound 16], on recombinant human TDP2, the IC50 was above 111 µM.

For `CC(=O)c1c(C)oc2c1C(=O)c1cccnc1C2=O` [Compound 8, 3-acetyl-2-methylfuro[3,2-g]quinoline-4,9-dione], the IC50 on recombinant human TDP2 is above 111 µM.

Consider `CCOC(=O)c1c(CN2CCN(C(C)=O)CC2)oc2c1C(=O)c1ncccc1C2=O` [Compound 71], for which the IC50 at recombinant human TDP2 was in the range of 12 to 37 µM.

For `CCOC(=O)C1=C(C)C(C(=O)OCC)C2=C1C(=O)c1ncccc1C2=O` (stereo not shown) [Compound 4], the IC50 on recombinant human TDP2 is above 111 µM.

For the molecule `CCOC(=O)c1c(-c2ccccc2)oc2c1C(=O)c1cccnc1C2=O` [Compound 29, Ethyl 4,9-dioxo-2-phenyl-4,9-dihydrofuro[3,2-g]quinoline-3-carboxylate], the IC50 at recombinant human TDP2 lay within 37 to 111 µM; at human TDP2 (hTDP2), 12 to 37 µM.

Take `C#CCCOC(=O)c1c(C)oc2c1C(=O)c1ncccc1C2=O` [Compound 43]: the IC50 on recombinant human TDP2 and at human TDP2 (hTDP2) was 12 to 37 µM in each case.

Turning to `Cc1oc2c(c1C(=O)OCCO)C(=O)c1ncccc1C2=O` [Compound 10, 2-hydroxyethyl-2-methyl-4,9-dioxo-4,9-dihydrofuro[2,3-g]quinoline-3-carboxylate], the IC50 on recombinant human TDP2 is 12 to 37 µM; on human TDP2 (hTDP2), 1 to 12 µM.

`Cc1oc2c(c1C(=O)Oc1ccc(S(C)(=O)=O)cc1)C(=O)c1ncccc1C2=O` [Compound 44]: the IC50 at recombinant human TDP2 and at human TDP2 (hTDP2) was 12 to 37 µM throughout.

With `Cc1oc2c(c1C(=O)OC[C@H]1COC(C)(C)O1)C(=O)c1ncccc1C2=O` [Compound 38], the IC50 on recombinant human TDP2 and on human TDP2 (hTDP2) was 1 to 12 µM in each case.

Regarding `Cc1oc2c(c1C(=O)Oc1cccc(O)c1)C(=O)c1ncccc1C2=O` [Compound 12], the IC50 at recombinant human TDP2 fell in the range of 12 to 37 µM; on human TDP2 (hTDP2) it was 1 to 12 µM.

Take `Cc1oc2c(c1C(=O)Oc1ccc(N)cc1)C(=O)c1ncccc1C2=O` [Compound 70]: at recombinant human TDP2, the IC50 lay within 1 to 12 µM.

`Cc1oc2c(c1C(=O)OCCCO)C(=O)c1ncccc1C2=O` [Compound 11]: the figures for the IC50 at recombinant human TDP2 and on human TDP2 (hTDP2) were 12 to 37 µM and 1 to 12 µM, respectively.

For the molecule `Cc1oc2c(c1C(=O)OCCc1ccccc1)C(=O)c1ncccc1C2=O` [Compound 40], the results for the IC50 at recombinant human TDP2 and on human TDP2 (hTDP2) were 37 to 111 µM and 12 to 37 µM, respectively.

Consider `COc1ccc(NC(=O)c2c(C)oc3c2C(=O)c2ncccc2C3=O)cc1` [Compound 19], for which, at recombinant human TDP2, the IC50 is above 111 µM.

Take `Cc1oc2c(c1C(=O)OCC(O)CO)C(=O)c1ncccc1C2=O` (stereo not shown) [Compound 15]: the IC50 is 12 to 37 µM at recombinant human TDP2 and 1 to 12 µM at human TDP2 (hTDP2).

Regarding `CCOC(=O)c1c(C(Br)Br)oc2c1C(=O)c1ncccc1C2=O` [Compound 74], the IC50 on recombinant human TDP2 is 12 to 37 µM.

Consider `Cc1oc2c(c1C(=O)Nc1cccc(O)c1)C(=O)c1ncccc1C2=O` [Compound 21], for which the IC50 on recombinant human TDP2 was above 111 µM.

As for `CC(=O)N1CCN(c2ccc(OC(=O)c3c(C)oc4c3C(=O)c3ncccc3C4=O)cc2)CC1` [Compound 61], the IC50 on recombinant human TDP2 lay in the range of 37 to 111 µM; at human TDP2 (hTDP2), 1 to 12 µM.

In the case of `CCOC(=O)c1c(CC)oc2c1C(=O)c1ncccc1C2=O` [Compound 65], the IC50 at recombinant human TDP2 lay within 37 to 111 µM.

For the molecule `COC(=O)c1sccc1OC(=O)c1c(C)oc2c1C(=O)c1ncccc1C2=O` [Compound 62], the IC50 at recombinant human TDP2 lay in the range of 12 to 37 µM; at human TDP2 (hTDP2) it was 1 to 12 µM.

Consider `C=CC(=O)Nc1ccc(OC(=O)c2c(C)oc3c2C(=O)c2ncccc2C3=O)cc1` [Compound 68], for which the IC50 at recombinant human TDP2 is 12 to 37 µM.

With `CNC1=C(Cl)C(=O)c2ncccc2C1=O` [Compound 6], the IC50 on recombinant human TDP2 was above 111 µM.

On to `Cc1oc2c(c1C(=O)Oc1ccc(Cl)cc1)C(=O)c1ncccc1C2=O` [Compound 27], for which the IC50 on recombinant human TDP2 and on human TDP2 (hTDP2) was 1 to 12 µM each time.

`CCOC(=O)c1c2c(n(C)c1C)C(=O)c1ncccc1C2=O` [Compound 5]: the IC50 at recombinant human TDP2 is above 111 µM.

As for `O=C(Oc1ccc(OCCCN2CCOCC2)cc1)c1coc2c1C(=O)c1ncccc1C2=O` [Compound 59], the IC50 lay in the range of 37 to 111 µM at recombinant human TDP2 and 1 to 12 µM on human TDP2 (hTDP2).

As to `Cc1oc2c(c1C(=O)OC[C@@H](O)CO)C(=O)c1ncccc1C2=O` [Compound 37], the IC50 at recombinant human TDP2 was 1 to 12 µM; at human TDP2 (hTDP2), 12 to 37 µM.

On to `COC(=O)c1c(C)oc2c1C(=O)c1ncccc1C2=O` [Compound 41], for which the IC50 at recombinant human TDP2 lay in the range of 12 to 37 µM; on human TDP2 (hTDP2), 1 to 12 µM.

With `Cc1oc2c(c1C(=O)OCCc1cn(CCC(=O)O)nn1)C(=O)c1ncccc1C2=O` [Compound 42], the IC50 at recombinant human TDP2 and on human TDP2 (hTDP2) was 12 to 37 µM throughout.

`COP(=O)(CCOC(=O)c1c(C)oc2c1C(=O)c1ncccc1C2=O)OC` [Compound 22]: the IC50 on recombinant human TDP2 was in the range of 1 to 12 µM; on human TDP2 (hTDP2), 12 to 37 µM.

As for `Cc1oc2c(c1C(=O)Nc1ccccc1O)C(=O)c1ncccc1C2=O` [Compound 18], the IC50 on recombinant human TDP2 is above 111 µM.

For `Cc1oc2c(c1C(=O)OCCCCO)C(=O)c1ncccc1C2=O` [Compound 35], the IC50 is 12 to 37 µM on recombinant human TDP2 and 1 to 12 µM on human TDP2 (hTDP2).

In the case of `Cc1oc2c(c1C(=O)O)C(=O)c1ncccc1C2=O` [Compound 7, 2-methyl-4,9-dioxo-4,9-dihydrofuro[2,3-g]quinoline-3-carboxylic acid], the IC50 on recombinant human TDP2 and at human TDP2 (hTDP2) was 37 to 111 µM each time.

As for `CCOC(=O)c1c(CC)oc2c1C(=O)c1ncccc1C2=O` [Compound 66], the IC50 at recombinant human TDP2 fell in the range of 12 to 37 µM.

Consider `CCNC(=O)c1c(C)oc2c1C(=O)c1ncccc1C2=O` [Compound 20], for which the IC50 on recombinant human TDP2 is above 111 µM.

As for `Cc1oc2c(c1C(=O)Oc1ccc3ccccc3c1)C(=O)c1ncccc1C2=O` [Compound 25], on recombinant human TDP2, the IC50 is above 111 µM.

In the case of `Cc1oc2c(c1C(=O)Nc1cccc(Cl)c1)C(=O)c1ncccc1C2=O` [Compound 17], the IC50 at recombinant human TDP2 was above 111 µM.

Take `CCOC(=O)c1noc2c1C(=O)c1ncccc1C2=O` [Compound 73]: the IC50 at recombinant human TDP2 is at most 1 µM.

For the molecule `CCOC(=O)c1c(CN2CCOCC2)oc2c1C(=O)c1ncccc1C2=O` [Compound 72], the IC50 on recombinant human TDP2 was in the range of 1 to 12 µM.

Take `C=CC(=O)Nc1cccc(OC(=O)c2c(C)oc3c2C(=O)c2ncccc2C3=O)c1` [Compound 67]: the IC50 on recombinant human TDP2 lay in the range of 12 to 37 µM.

Regarding `CCOC(=O)c1c(C)oc2c1C(=O)c1ccccc1C2=O` [Compound 3, Ethyl 2-methyl-4,9-dioxo-4,9-dihydronaphtho[2,3-b]furan-3-carboxylate], on recombinant human TDP2, the IC50 fell in the range of 37 to 111 µM.

Regarding `CC(C)(C)OC(=O)Nc1ccc(OC(=O)c2coc3c2C(=O)c2ncccc2C3=O)cc1` [Compound 69], the IC50 at recombinant human TDP2 fell in the range of 12 to 37 µM.
